Structures are written as SMILES.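 Cells were grown in 96-well plates and exposed to each compound for 48 hours at five concentrations; endpoints were interpolated linearly between bracketing concentrations, or set to the highest concentration if not reached. GI50 is the concentration that inhibits growth by half. TGI: total growth inhibition.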

For nine compounds, TGI and GI50 results are on record in PubChem BioAssay (NCI).

Test systems include ACHN renal; COLO 205 colon; SK-MEL-5 melanoma; NCI-H23 lung; BT-549 breast; 786-0 renal; IGROV1 ovarian; A498 renal; TK-10 renal; MOLT-4 leukemia; SN12C renal; LOX IMVI melanoma; MDA-MB-435; RXF 393 renal; NCI-H226 lung; OVCAR-5 ovarian; T-47D breast.
What all share (assay): NCI-60 cell line screen, 48 h

For `COc1cccc2c1[C@H](OC)[C@]13O[C@@]1(C2=O)[C@H](O)[C@H](C)[C@@](O)(C(=O)[C@@H]1O[C@H]1C)[C@@H]3O`, the TGI stood at 0.7 µM in the assay with ACHN renal; 0.415 µM in the assay on COLO 205 colon; 0.386 µM in the assay on SK-MEL-5 melanoma; 0.541 µM in the assay with NCI-H23 lung; 1.28 µM with BT-549 breast; 2.52 µM in the assay with 786-0 renal. Moreover, the TGI with IGROV1 ovarian was 0.576 µM; in the assay with A498 renal, 0.585 µM; in the assay with TK-10 renal, 10.7 µM; in the assay on MOLT-4 leukemia, greater than 47.6 µM; in the assay on SN12C renal, 0.819 µM; with LOX IMVI melanoma it was 0.648 µM. For the same compound, the TGI in the assay with MDA-MB-435 was found to be 0.518 µM; in the assay on RXF 393 renal, 1.1 µM; with NCI-H226 lung, 1.2 µM; in the assay with OVCAR-5 ovarian, 2.05 µM. Besides, in the assay on SN12C renal, the GI50 is 0.0489 µM.

For the compound `COc1ccc(OC)c2c1C(=O)C(Cl)=C(Cl)C2=O`, the TGI with T-47D breast was 8.09 µM; in the assay on ACHN renal, 10.9 µM; in the assay with COLO 205 colon it was 3.21 µM; with SK-MEL-5 melanoma, 14.1 µM; with NCI-H23 lung, 19.2 µM; in the assay on 786-0 renal, 10.5 µM. In addition, the TGI came to 31.1 µM in the assay on IGROV1 ovarian; 41.6 µM with A498 renal; 9.83 µM in the assay on TK-10 renal; 8.87 µM in the assay with MOLT-4 leukemia; 23.1 µM in the assay with SN12C renal; 5.18 µM in the assay on LOX IMVI melanoma. Further, the TGI was determined as 5.88 µM in the assay on MDA-MB-435, 3.65 µM in the assay on RXF 393 renal, 42.2 µM in the assay with NCI-H226 lung and 29.6 µM in the assay with OVCAR-5 ovarian.

As to `COc1ccc(/C=C/c2cc(=O)cc(/C=C/c3ccc(OC)c(O)c3)o2)cc1O`, the TGI in the assay on T-47D breast is 10.8 µM; with ACHN renal it was 6.85 µM; with COLO 205 colon it was greater than 61.1 µM; in the assay on SK-MEL-5 melanoma it was 4.98 µM; in the assay on NCI-H23 lung, 5.8 µM; in the assay on BT-549 breast, 10.3 µM. Further, the TGI was greater than 34 µM with 786-0 renal; 13.3 µM in the assay with IGROV1 ovarian; 9.43 µM in the assay on A498 renal; 16.9 µM in the assay on TK-10 renal; 4.9 µM in the assay on MOLT-4 leukemia; greater than 33.6 µM with SN12C renal. Moreover, the TGI in the assay with LOX IMVI melanoma came out at 3.95 µM; in the assay with RXF 393 renal, 2.96 µM; with NCI-H226 lung, 20.7 µM; in the assay on OVCAR-5 ovarian it was 24 µM.

With `O=[N+]([O-])/C(Cl)=C(\Sc1ccccc1)C(Cl)=C(Cl)Cl`, the TGI with T-47D breast was determined as 4.88 µM; in the assay with ACHN renal, 3.07 µM; in the assay with COLO 205 colon it was 0.608 µM; with SK-MEL-5 melanoma, 1.72 µM; in the assay with NCI-H23 lung, 1.87 µM; in the assay with 786-0 renal, 1.07 µM. The TGI turned out to be 2.62 µM in the assay on IGROV1 ovarian; 3.1 µM with A498 renal; 3.21 µM in the assay on TK-10 renal; 1.58 µM in the assay with MOLT-4 leukemia; 1.51 µM with SN12C renal; 0.97 µM in the assay with LOX IMVI melanoma. In addition, the TGI in the assay on MDA-MB-435 was 0.453 µM; in the assay on RXF 393 renal, 2.6 µM; in the assay on NCI-H226 lung it was 4.47 µM; with OVCAR-5 ovarian it was 3.66 µM.

Take `C1CSCCSS[C@@H]2CCCCC2SC1` (stereo partly drawn): the TGI in the assay on T-47D breast, in the assay on COLO 205 colon, in the assay on SK-MEL-5 melanoma, in the assay on NCI-H23 lung, in the assay with BT-549 breast and in the assay with 786-0 renal was greater than 100 µM each time. Besides, the TGI with IGROV1 ovarian, in the assay on TK-10 renal, in the assay on MOLT-4 leukemia, with SN12C renal, in the assay on LOX IMVI melanoma and in the assay on MDA-MB-435 was greater than 100 µM in each case. This compound also showed a TGI in the assay on OVCAR-5 ovarian greater than 100 µM.

Consider `N#CC1(C#N)C(c2ccccc2)NC23CCCCC2C1(C#N)C(=O)N3` (stereo not drawn), for which the TGI in the assay on T-47D breast, in the assay with ACHN renal, in the assay with COLO 205 colon, with NCI-H23 lung, with BT-549 breast and with 786-0 renal was greater than 100 µM each time. Further, the TGI in the assay on IGROV1 ovarian, with A498 renal, with MOLT-4 leukemia, in the assay with SN12C renal, in the assay with MDA-MB-435 and in the assay on RXF 393 renal was greater than 100 µM each time. Besides, the TGI in the assay on NCI-H226 lung and in the assay with OVCAR-5 ovarian was greater than 100 µM in each case.

On to `c1ccc(SCCP(CCP(c2ccccc2)c2ccccc2)c2ccccc2)cc1` (stereo not drawn), for which the TGI in the assay with T-47D breast is 79.1 µM; in the assay with ACHN renal, greater than 76 µM; in the assay on COLO 205 colon, 15.8 µM; in the assay on SK-MEL-5 melanoma, 33.8 µM; in the assay with NCI-H23 lung it was greater than 54.1 µM; with BT-549 breast, 68.7 µM. Further, the TGI in the assay with 786-0 renal was greater than 100 µM; with IGROV1 ovarian, greater than 100 µM; in the assay on TK-10 renal, greater than 100 µM; in the assay on MOLT-4 leukemia it was 81.5 µM; with SN12C renal, greater than 88.6 µM; in the assay with MDA-MB-435, greater than 100 µM. Also, the TGI in the assay on RXF 393 renal is greater than 100 µM; in the assay with NCI-H226 lung it was greater than 87.6 µM; in the assay on OVCAR-5 ovarian it was greater than 100 µM.

Take `CCOC(=O)c1c(SCC#N)n(-c2ccccc2)c(=S)n(-c2ccccc2)c1=O`: the TGI in the assay with T-47D breast, with ACHN renal, in the assay with COLO 205 colon, with SK-MEL-5 melanoma, in the assay with NCI-H23 lung and with BT-549 breast was greater than 100 µM each time. Besides, the TGI in the assay with 786-0 renal is greater than 100 µM; with IGROV1 ovarian it was greater than 100 µM; in the assay on TK-10 renal, greater than 100 µM; with MOLT-4 leukemia, 67.6 µM; in the assay on SN12C renal, greater than 100 µM; in the assay with LOX IMVI melanoma, greater than 100 µM. Further, the TGI with MDA-MB-435, in the assay on NCI-H226 lung and in the assay on OVCAR-5 ovarian was greater than 100 µM in each case.

For `C[C@@H]1O[C@@H]2OCC[C@@H]2C2=C1C(=O)c1ccccc1C2=O`, the TGI was 31.9 µM with T-47D breast; 28.6 µM with ACHN renal; 51.3 µM with COLO 205 colon; 19.2 µM with SK-MEL-5 melanoma; 23.4 µM in the assay with NCI-H23 lung; 29.1 µM with 786-0 renal. For the same compound, the TGI in the assay on IGROV1 ovarian is 10.8 µM; with A498 renal, 32.4 µM; in the assay with TK-10 renal, 34.1 µM; in the assay with MOLT-4 leukemia, greater than 100 µM; in the assay with SN12C renal, 29.8 µM; with LOX IMVI melanoma, 5.65 µM. Also, the TGI in the assay on MDA-MB-435 came to 3.69 µM; with RXF 393 renal, 13.3 µM; with NCI-H226 lung, 61.5 µM; in the assay with OVCAR-5 ovarian, 4.3 µM.
